According to US20260102501A1, “ANTI-CANCER NUCLEAR HORMONE RECEPTOR-TARGETING COMPOUNDS” (Nuvation Bio Inc., priority 2022, published 2026):
Where two headings read alike, the source gives them in different places.

Assays:
LNCap cells = test: Cell viability assay (CellTiterGlo); type: cell-based; settings: Homo sapiens, 144 h
22Rv1 cells = test: Cell viability assay (CellTiterGlo); settings: Homo sapiens, 22Rv1, 144 h, read-out: 22RV1 (IC50, nM)
[1] = target: T1, AR (cytosol from LnCaP cells) (Homo sapiens, UniProt P10275, T878A); test: AR binding assay (3H-R1881 displacement)
T1 sequence (P10275 1-920 T878A): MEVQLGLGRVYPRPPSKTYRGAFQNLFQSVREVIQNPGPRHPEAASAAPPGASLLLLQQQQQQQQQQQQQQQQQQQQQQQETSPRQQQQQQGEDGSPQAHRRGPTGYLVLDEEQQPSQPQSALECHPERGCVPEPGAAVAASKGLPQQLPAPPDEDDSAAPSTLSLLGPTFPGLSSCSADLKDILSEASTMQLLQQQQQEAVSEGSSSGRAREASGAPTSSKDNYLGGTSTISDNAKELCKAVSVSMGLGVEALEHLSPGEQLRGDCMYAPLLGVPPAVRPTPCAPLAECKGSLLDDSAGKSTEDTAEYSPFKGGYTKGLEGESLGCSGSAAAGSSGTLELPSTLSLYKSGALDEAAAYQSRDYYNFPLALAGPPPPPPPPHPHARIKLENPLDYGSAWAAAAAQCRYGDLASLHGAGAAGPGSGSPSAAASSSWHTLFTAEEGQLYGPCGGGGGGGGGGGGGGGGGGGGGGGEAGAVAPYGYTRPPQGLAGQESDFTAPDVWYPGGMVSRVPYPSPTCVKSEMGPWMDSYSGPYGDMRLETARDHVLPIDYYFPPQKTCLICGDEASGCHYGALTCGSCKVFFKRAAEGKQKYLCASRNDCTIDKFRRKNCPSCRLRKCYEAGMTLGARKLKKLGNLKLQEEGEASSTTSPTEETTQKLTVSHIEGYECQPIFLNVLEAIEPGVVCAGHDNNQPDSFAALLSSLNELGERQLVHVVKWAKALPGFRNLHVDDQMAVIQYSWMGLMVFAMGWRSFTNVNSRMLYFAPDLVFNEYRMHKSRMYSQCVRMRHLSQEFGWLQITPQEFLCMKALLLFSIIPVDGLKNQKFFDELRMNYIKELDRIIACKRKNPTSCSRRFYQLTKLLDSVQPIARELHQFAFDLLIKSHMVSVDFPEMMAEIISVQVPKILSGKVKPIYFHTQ
Experimental: The plate was then centrifuged at 3000 rpm for 30 minutes at 4° C.

IEC6 cells = test: Cell viability assay (CellTiterGlo); settings: Rattus norvegicus, IEC-6, 144 h, read-out: IEC-6 (IC50, nM)
[2] = 6 days incubation, CellTiterGlo, read-out: LNCap (IC50)

Structure (SMILES) | IC50 (LNCap cells; [2]) | IC50 (22Rv1 cells) | IC50 [1] | IC50 (IEC6 cells) | IC50 (LNCap cells; read-out: LNCap (IC50, nM))
CC[C@@]1(O)C(=O)OCc2c1cc1n(c2=O)Cc2cc3c(CN4CCN(CC5CCN(c6ccc(C(=O)N[C@H]7CC[C@H](N(C)c8ccc(C#N)c(Cl)c8)CC7)nn6)CC5)CC4)c(O)ccc3nc2-1 [Compound 28, N-((1r,4r)-4-((3-Chloro-4-cyanophenyl)(methyl)amino)cyclohexyl)-6-(4-((4-(((S)-4-ethyl-4,9-dihydroxy-3,14-dioxo-3,4,12,14-tetrahydro-1H-pyrano[3′,4′:6,7]indolizino[1,2-b]quinolin-10-yl)methyl)piperazin-1-yl)methyl)piperidin-1-yl)pyridazine-3-carboxamide] | 10 to 100 nM | 10 to 100 nM | 10 to 100 nM | – | –
CC[C@@]1(O)C(=O)OCc2c1cc1n(c2=O)Cc2cc3c(CN(C)C)c(OCC4CCN(C(=O)C5CCN(c6ccc(C(=O)N[C@H]7CC[C@H](Oc8ccc(C#N)c(Cl)c8)CC7)nn6)CC5)CC4)ccc3nc2-1 [Compound No. 16, N-((1r,4r)-4-(3-Chloro-4-cyanophenoxy)cyclohexyl)-6-(4-(4-((((S)-10-((dimethylamino)-methyl)-4-ethyl-4-hydroxy-3,14-dioxo-3,4,12,14-tetrahydro-1H-pyrano[3′,4′:6,7]indolizino[1,2-b]quinolin-9-yl)oxy)methyl)piperidine-1-carbonyl)piperidin-1-yl)pyridazine-3-carboxamide] | 101 to 1000 nM | 101 to 1000 nM | 10 to 100 nM | > 1000 nM | –
CC[C@@]1(O)C(=O)OCc2c1cc1n(c2=O)Cc2cc3c(CN4CCN(C(=O)C5CCN(c6ccc(C(=O)N[C@H]7CC[C@H](N(C)c8ccc(C#N)c(Cl)c8)CC7)nn6)CC5)CC4)c(O)ccc3nc2-1 [Compound No. 15, N-((1r,4r)-4-((3-Chloro-4-cyanophenyl)(methyl)amino)cyclohexyl)-6-(4-(4-(((S)-4-ethyl-4,9-dihydroxy-3,14-dioxo-3,4,12,14-tetrahydro-1H-pyrano[3′,4′:6,7]indolizino[1,2-b]quinolin-10-yl)methyl)-piperazine-1-carbonyl)piperidin-1-yl)pyridazine-3-carboxamide] | 10 to 100 nM | 10 to 100 nM | < 10 nM | > 1000 nM | –
CC[C@@]1(O)C(=O)OCc2c1cc1n(c2=O)Cc2cc3c(CN(C)C)c(OC(=O)N4CCN(CC5CCN(c6ccc(N7C(=S)N(c8ccc(C#N)c(Cl)c8)C(=O)C7(C)C)cc6)CC5)CC4)ccc3nc2-1 [Compound 58, (S)-10-((dimethylamino)methyl)-4-ethyl-4-hydroxy-3,14-dioxo-3,4,12,14-tetrahydro-1H-pyrano[3′,4′:6,7]indolizino[1,2-b]quinolin-9-yl 4-((1-(4-(3-(3-chloro-4-cyanophenyl)-5,5-dimethyl-4-oxo-2-thioxoimidazolidin-1-yl)phenyl)piperidin-4-yl)methyl)piperazine-1-carboxylate] | – | 10 to 100 nM | 10 to 100 nM | 101 to 1000 nM | 101 to 1000 nM
CC[C@@]1(O)C(=O)OCc2c1cc1n(c2=O)Cc2cc3c(CN4CCN(C(=O)C5CCN(c6ccc(C(=O)N[C@H]7CC[C@H](Oc8ccc(C#N)c(Cl)c8)CC7)nn6)CC5)CC4)c(OC(=O)N(C)c4ccccc4)ccc3nc2-1 [Compound 2, (S)-10-((4-(1-(6-(((1r,4r)-4-(3-Chloro-4-cyanophenoxy)cyclohexyl)carbamoyl)pyridazin-3-yl)piperidine-4-carbonyl)piperazin-1-yl)methyl)-4-ethyl-4-hydroxy-3,14-dioxo-3,4,12,14-tetrahydro-1H-pyrano[3′,4′:6,7]indolizino[1,2-b]quinolin-9-yl Methyl(phenyl)carbamate] | – | > 1000 nM | 101 to 1000 nM | – | > 1000 nM
CC[C@@]1(O)C(=O)OCc2c1cc1n(c2=O)Cc2cc3c(CN(C)C)c(OC(=O)N4C[C@H](C)N(C(=O)C5CCN(c6ccc(C(=O)N[C@H]7CC[C@H](N(C)c8ccc(C#N)c(Cl)c8)CC7)nn6)CC5)C[C@H]4C)ccc3nc2-1 [Compound No. 17, (S)-10-((Dimethylamino)methyl)-4-ethyl-4-hydroxy-3,14-dioxo-3,4,12,14-tetrahydro-1H-pyrano[3′,4′:6,7]indolizino[1,2-b]quinolin-9-yl (2R,5S)-4-(1-(6-(((1r,4r)-4-((3-chloro-4-cyanophenyl)(methyl)-amino)cyclohexyl)carbamoyl)pyridazin-3-yl)piperidine-4-carbonyl)-2,5-dimethylpiperazine-1-carboxylate] | – | 101 to 1000 nM | 10 to 100 nM | > 1000 nM | 101 to 1000 nM
CC[C@@]1(O)C(=O)OCc2c1cc1n(c2=O)Cc2cc3c(CN(C)C(=O)C(C)(C)N(C)C(=O)CO[C@H]4CC[C@H]5[C@@H]6CC[C@H]7CC(=O)CC[C@]7(C)[C@H]6CC[C@]45C)c(O)ccc3nc2-1 [Compound 4, 2-(2-(((5S,8R,9S,10S,13S,14S,17S)-10,13-Dimethyl-3-oxohexadecahydro-1H-cyclopenta[a]phenanthren-17-yl)oxy)-N-methylacetamido)-N—(((S)-4-ethyl-4,9-dihydroxy-3,14-dioxo-3,4,12,14-tetrahydro-1H-pyrano[3′,4′:6,7]indolizino[1,2-b]quinolin-10-yl)methyl)-N,2-dimethylpropanamide] | 101 to 1000 nM | 101 to 1000 nM | – | – | –
CC[C@@]1(O)C(=O)OCc2c1cc1n(c2=O)Cc2cc3c(CN(C)C)c(OC(=O)N4CCN(C(=O)C5CCN(c6ccc(C(=O)N[C@H]7CC[C@H](N(C)c8ccc(C#N)c(Cl)c8)CC7)nn6)CC5)CC4)ccc3nc2-1 [Compound No. 11, (S)-10-((Dimethylamino)methyl)-4-ethyl-4-hydroxy-3,14-dioxo-3,4,12,14-tetrahydro-1H-pyrano[3′,4′:6,7]indolizino[1,2-b]quinolin-9-yl 4-(1-(6-(((1r,4r)-4-((3-chloro-4-cyanophenyl)(methyl)amino)-cyclohexyl)carbamoyl)pyridazin-3-yl)piperidine-4-carbonyl)piperazine-1-carboxylate] | – | 10 to 100 nM | < 10 nM | 101 to 1000 nM | 10 to 100 nM
CC[C@@]1(O)C(=O)OCc2c1cc1n(c2=O)Cc2cc3c(CN4CCN(C(=O)C5CCN(c6ccc(C(=O)N[C@H]7CC[C@H](Oc8ccc(C#N)c(Cl)c8)CC7)nn6)CC5)CC4)c(OC(=O)N4CCN(C)CC4)ccc3nc2-1 [Compound No. 10, (S)-10-((4-(1-(6-(((1r,4r)-4-(3-Chloro-4-cyanophenoxy)cyclohexyl)carbamoyl)pyridazin-3-yl)piperidine-4-carbonyl)piperazin-1-yl)methyl)-4-ethyl-4-hydroxy-3,14-dioxo-3,4,12,14-tetrahydro-1H-pyrano[3′,4′:6,7]indolizino[1,2-b]quinolin-9-yl 4-Methylpiperazine-1-carboxylate] | – | > 1000 nM | 10 to 100 nM | > 1000 nM | > 1000 nM
CC[C@@]1(O)C(=O)OCc2c1cc1n(c2=O)Cc2cc3c(CN4CCN(C(=O)C5CCN(c6ccc(C(=O)N[C@H]7CC[C@H](Oc8ccc(C#N)c(Cl)c8)CC7)nn6)CC5)CC4)c(OC(=O)N4CCC(N5CCCCC5)CC4)ccc3nc2-1 [Compound No. 13, (S)-10-((4-(1-(6-(((1r,4r)-4-(3-Chloro-4-cyanophenoxy)cyclohexyl)carbamoyl)pyridazin-3-yl)piperidine-4-carbonyl)piperazin-1-yl)methyl)-4-ethyl-4-hydroxy-3,14-dioxo-3,4,12,14-tetrahydro-1H-pyrano[3′,4′:6,7]indolizino[1,2-b]quinolin-9-yl [1,4′-bipiperidine]-1′-carboxylate] | – | > 1000 nM | 10 to 100 nM | > 1000 nM | > 1000 nM
CC[C@@]1(O)C(=O)OCc2c1cc1n(c2=O)Cc2cc3c(CN(C)C)c(OC(=O)N4CCN(C(=O)CCCCCNC(=O)c5ccc(N6C(=S)N(c7ccc(C#N)c(C(F)(F)F)c7)C(=O)C6(C)C)cc5F)CC4)ccc3nc2-1 [Compound 9, (S)-10-((Dimethylamino)methyl)-4-ethyl-4-hydroxy-3,14-dioxo-3,4,12,14-tetrahydro-1H-pyrano[3′,4′:6,7]indolizino[1,2-b]quinolin-9-yl 4-(6-(4-(3-(4-cyano-3-(trifluoromethyl)phenyl)-5,5-dimethyl-4-oxo-2-thioxoimidazolidin-1-yl)-2-fluorobenzamido)hexanoyl)piperazine-1-carboxylate] | – | 10 to 100 nM | > 1000 nM | > 1000 nM | 10 to 100 nM
